Data published in US12263177B2, “Biologically active ganoderma lucidum compounds and synthesis of anticancer derivatives; ergosterol peroxide probes for cellular localization” (priority 2019, dated 2025).

Tests used:
SUM-149 cells [1] = assay: Annexin V apoptosis detection; type: cell-based, human; settings: 20 μM, 48 h
Description: (§1) Cells commonly fail to bypass the G1 phase of the cycle due to mutations or DNA damage, which can result in apoptosis. […] In addition, caspase 3/7 activity assays were performed as an alternate method of apoptosis detection.
SUM-149 cells (5×10^5) were seeded and treated either with vehicle (0.1% DMSO) or with 20 μM of EP or with puromycin (200 ng/mL) as positive control for 48 h. After treatment floating cells were collected, and all cells were harvested and counted. Treated cells were analyzed for cell death by using the FITC Annexin-V/7AAD Apoptosis detection kit (product #640922, Biolegend, San Diego, CA) according to the manufacturer's instructions. Briefly, cells were resuspended in Annexin Binding Buffer, stained with Annexin V-FITC and/or 7-AAD, and incubated for 30 min at 4° C. Data were acquired on a BD FACS Canto II cytometer (BD Biosciences, San José, Calif.) and analyzed by using FlowJo software (V10, FlowJo LLC, Ashland, OR).

[2] = test system: AKT isoforms, BCL-XL, Cyclin D1, c-Myc, PARP in SUM-149 cells; assay: Immunoblots of signaling proteins; type: cell-based, human
Excerpt: Studies that focus on drivers of cancer cell survival and invasion signaling show the important role of the AKT isoforms in breast cancer. AKT1 and AKT3 are associated with breast cancer invasion, and PTEN-deficient tumors depend on AKT2 for maintenance and survival. […] Regulation of AKT isoform expression by EP is extremely similar to what the inventors reported with whole mushroom GLE in the same breast cancer cell lines.
Because EP induced apoptosis, its effects on the expression on anti-apoptosis proteins BCL-2 and BCL-XL, which block the release of cytochrome C from the mitochondria were investigated. […] The apoptosis inducing effects of EP in SUM-149 cells were investigated by monitoring PARP cleavage.
Breast cancer cells treated with vehicle or EP were lysed, and equal total protein was resolved via SDS-PAGE and immunoblotted with indicated antibodies (Cell Signaling Technologies, Abcam, Sigma) as described previously.

[3] = type: physicochemical; settings: 168 hr at RT
SUM-149 cells [4] = assay: Migration assay (Boyden chamber); type: cell-based, human; settings: 10 μM, 72 h
Description: (§2) Previously, the anti-migratory activities of whole mushroom GLE in SUM-149 cells was reported. To investigate EP's effects on cell migration, Boyden chamber assays; while to investigate invasion, Transwell chambers were used. […] Furthermore, an additional decrease (43%) was seen when cells were treated with a non-lethal dose of 15 μM of EP (P<0.01) (FIG. 8B).
(§3) Cell migration and invasion were measured by using Corning® FluoroBlok™ Cell Culture Inserts and performing BD BioCoat Matrigel invasion assays (BD Biosciences, San José, Calif.) as described in [12, 14].

SUM-149 cells [5] = assay: Invasion assay (Transwell, Matrigel); type: cell-based, human; settings: 72 h
Description: as §2, §3

HMEC = assay: Cytotoxicity of EP probes via CTG assay, normal cells; type: cell-based; settings: Homo sapiens, HMEC, 72 hr
Description: Both normal cell lines HMEC and BJ cells were also evaluated to determine therapeutic index.
The concentrations used were experimentally determined to ensure logarithmic growth during the duration of the experiment and prevent adverse effects on cell growth by DMSO exposure. The plates were incubated at 37° C. in 5% CO2 for 24 h before treatment. Stock solutions of test compounds (10 mM in DMSO) in nine 3-fold serial dilutions were dispensed via pintool (Biomek). The final concentration of DMSO was 0.3% (v/v) in each well. The plates were incubated for 72 h at 37° C. in 5% CO2 and then quenched with CellTiter-Glo® reagent (50 μL/well in 96-well plate, 30 μL/well in 384-well plate) at RT. The positive controls included staurosporine (10 μM), gambogic acid (10 μM), and a toxic quinoline generated in-house. Plates were then incubated at RT for 20 min and centrifuged at 1000 rpm for 1 min. The cytotoxicity assay was performed by using the CellTiterGlo Luminescent Cell Viability Assay kit (G7570, Promega, Madison, WI) according to the manufacturer's instructions. Luminescence was recorded in an Envision plate reader (Perkin Elmer).
For the CTG assay, 3 or 4 replicate assays were conducted for each experimental condition, and a minimum of 3 independent experiments were conducted for cellular assays. The mean luminescence of each experimental treatment group was normalized as a percentage of the mean intensity of untreated controls. EC50 values (μM) were calculated by Pipeline Pilot Software (Accelrys, Enterprise Platform, CA, USA). EC50 values (μM) from the viability assay were calculated from dose response curve-fitting via non-linear regression by using GraphPad Prism (Version 7.0 San Diego, CA).

SUM-149 cells [6] = assay: Colony formation assay; type: cell-based, human; settings: 72 h treatment, 10 d culture
Description: as §1
SUM-149 cells (1.5×10^6 cells/well) were plated on a 6-well plate. Two days later, cell media was changed to 5% FBS, and cells were incubated at 37° C. in a 5% CO2 atmosphere for 1 h before vehicle (0.1% DMSO) or EP (5-40 μM) was added. After 72 h of treatment, cells were trypsinized and reseeded at 200 cells/mL per well in 24-well plates. After 10 d of culture, colonies were visualized by crystal violet staining, and the colony numbers were counted under a microscope.

MCF10A = type: cell-based
Description: As a control, normal human skin fibroblasts (BJ) cells and non-cancerous mammary epithelial cells (MCF10A) were used.
Cell viability assays (MTT or PI staining assays) in SUM-149, SUM-190, MDA-MB-231, and MCF10A cells were performed as we previously described [14].

[7] = test system: additional cancer cellular models; assay: Cell viability assay, additional cancer models; type: cell-based
Excerpt: Therefore, EP exerts selective effects on cancer cell viability, similar to the effects obtained with whole mushroom extract (GLE), indicating an ample therapeutic window for this compound.

MDA-MB-231 cells = assay: ApoTox-Glo Triplex assay (caspase 3/7); type: cell-based, human; settings: MDA-MB-231, 24 h
Description: as §1
(§4) Cells (9.5×10^4/well in 75 μL of fresh medium) were dispensed in 96-well black flat bottom (8807BC, Corning) plates. The cells were incubated for 12 h at 37° C. and then treated with compounds (25 μL) for 24 h. DMSO was used as a negative control, and staurosporine was used as the positive control. The experiment was stopped by adding the Viability/Cytotoxicity Reagent and briefly mixed by orbital shaking (300-500 rpm for ˜30 sec). Plates were incubated for 30 min at 37° C., and fluorescence was measured in an Envision plate reader at the following two wavelength sets: 400Ex/505Em (Viability) 485Ex/520Em (Cytotoxicity). Then, the Caspase-Glo® 3/7 Reagent was added; plates were mixed briefly by orbital shaking (300-500 rpm for ˜30 sec), followed by an additional 30 min incubation at RT. Then luminescence, which correlates with caspase 3/7 activation, was recorded with a plate reader to determine apoptosis induction.

SUM-149 cells [8] = assay: ApoTox-Glo Triplex assay (caspase 3/7); type: cell-based, human; settings: SUM-149, 24 h
Description: as §1, §4

SUM-149 cells [9] = assay: Reactive oxygen species (ROS) measurement, CellROX; type: cell-based, human

CC(C)[C@@H](C)/C=C/[C@@H](C)[C@H]1CC[C@@H]2[C@]1(C)CC[C@H]1[C@]23C=C[C@]2(C[C@@H](O)CC[C@]12C)OO3 [EP, ergosterol peroxide]
decrease of live cells (Annexin−, 7AAD−) (SUM-149 cells [1]): ~15%
percentage of cells in early apoptosis (Annexin+, 7AAD−) (SUM-149 cells [1]): significantly increased
AKT2 levels ([2]; SUM-149): decreases
AKT3 levels ([2]; SUM-149): not affecting
expression of BCL-XL ([2]; SUM-149): significantly reduces
expression of Cyclin D1 ([2]; SUM-149): significantly reduces
expression of c-Myc ([2]; SUM-149): significantly reduces
expression of p-AKT1 (Ser 473) ([2]; SUM-149): significantly decreases
p-AKT2 ([2]; SUM-149): without affecting
total AKT1 levels ([2]; SUM-149): decreases
PARP cleavage ([2]; SUM-149, 24 h, EP 30 μM): induces PARP cleavage
total PARP levels ([2]; SUM-149, 24 h, EP 30 μM): significantly reduces
precipitation on standing [3]: precipitation
cancer cell migration (SUM-149 cells [4]): decreases cancer cell migration
invading cells (SUM-149 cells [5]; 10 μM): significant reduction
decrease in invasion (SUM-149 cells [5]; 15 μM): 43%
EC50 (HMEC): > 20 µM
number and size of colonies formed (SUM-149 cells [6]): concentration-dependent decrease
cytotoxicity in MCF10A non-cancerous mammary epithelial cells (MCF10A): did not induce cytotoxicity
EC50 [7]: 7 to 22 µM
caspase 3/7 activity (MDA-MB-231 cells): increase caspase 3/7 activity
caspase 3/7 activity (SUM-149 cells [8]): increase caspase 3/7 activity
ROS formation, fold (SUM-149 cells [9]; EP 20 μM, vs vehicle): 4 fold
reduction in ROS formation in the presence of NAC (SUM-149 cells [9]; NAC 500 μM): about 20%
